Assay results as given in patent US10730892B2, “Homoallylamines as formaldehyde-responsive triggers” (The Regents of the University of California, priority 2015, dated 2020).
Read-outs that look alike come from different tables or passages of the source.

Assays:
[1] = in 1% pyridine/toluene; cited from earlier work
[2] = Fluorescence properties of compounds 3, 4, 5 and FP1 (Table 1); assay type: physicochemical
Text: Such red-shifted fluorophores are desirable because of low autofluorescence, minimal phototoxicity, and negligible interference from biomolecules when employed in live cell imaging. […] In the presence of FA, a reversible condensation event yielded an iminium intermediate which can undergo a charge-promoted [3,3]-sigmatropic rearrangement-hydrolysis sequence to expel the aryl nitro group and afford a highly fluorescent indole-3-carboxaldehyde product (ΦF=0.11) (Table 1). Of note, the aldehyde is strategically positioned at C3 such that after the reaction cascade, the N1 lone pair electrons can delocalize into the π-system rather than quench fluorescence via an acceptor-excited PeT (a-PeT) pathway. In this regard, silicon rhodol 3, without the carboxaldehyde, is non-fluorescent (Table 1).

[3] = Experimental: A modified version of the shake method was used to determine the partition coefficient or log Doct/wat value for FAP-1 (Rothbard et al., J. Am. Chem. Soc. 2004, 126:9506-9507). Briefly, 1-octanol-saturated PBS (248 μL), PBS-saturated 1-octanol (248 μL), and 1 mM solution of FAP-1 in DMSO (5 μL) were added to a 0.6-mL microcentrifuge tube. The dye was partitioned between the layers via vortexing for 30 s. The microcentrifuge tube was centrifuged on a bench-top minifuge at 4 k rpm for 4 minutes to separate the layers. A portion of the 1-octanol layer (200 μL) was transferred to a 96-well plate, and the fluorescence emission from 665-700 nm was measured (excitation at 645 nm) using a Synergy Mx multimode microplate reader (BioTek Instruments, Inc.) equipped with fluorescence module. The concentration of dye in the 1-octanol layer was determined by comparison with a standard curve constructed from six data points.
[4] = test system: HEK293T cells
Experimental: FIG. 29 depicts a photostability study with FAP-1. A field of HEK293T cells loaded with 10 μM FAP-1 in BSS at 37° C. was irradiated using 50% laser power (dashed line) or 6% laser power (solid line) with a pinhole of 1 airy unit for 100 scans. Emission was normalized to the first scan for each field. Error bars represent standard deviation, n=5.

[5] = remark: listed apart in the source
Experimental: Milli-Q water was used to prepare all aqueous solutions. All spectroscopic measurements were performed in 20 mM PBS, pH 7.4. Absorption spectra were recorded using a Varian Cary 50 spectrophotometer, and fluorescence spectra were recorded using a Photon Technology International Quanta Master 4 L-format scan spectrofluorometer equipped with an LPS-220B 75-W xenon lamp and power supply, A-1010B lamp housing with integrated igniter, switchable 814 photocounting/analog photomultiplier detection unit, and MD5020 motor driver. Samples for absorption and emission measurements were contained in 1-cm×1-cm quartz cuvettes (1.4-mL volume, Starna).
Quantum yield was determined using zinc phthalocyanine (ZnPc) as a standard according to a published method (Williams et al., Analyst. 1983, 108:1067-1071). For FAP-1 and ZnPc, the absorbance spectra were measured within an absorbance range below 0.1. The quantum yield was calculated according to the equation: ϕsample=ϕstandard (Gradsample/Gradstandard)(ηsample^2/ηstandard^2); where ϕ is the quantum yield, ϕstandard=0.34 in 1% pyridine/toluene (Bishop et al., J. Photochem. Photobiol. 1995, 90:39-44), Grad is the slope of the plot of absorbance versus integrated emission intensity, and η is the refractive index of the solvent.

[6] = remark: listed apart in the source
Experimental: (§1) 999 μL of a 10.01 μM solution of FAP-1 (for 4-hydroxynonenal cuvette: 998.4 μL of a 10.02 μM solution of FAP-1; for glutathione cuvette: 950 μL of a 10.53 μM solution of FAP-1) in 20 mM PBS (pH 7.4) was prepared by diluting a 10 mM DMSO stock solution of FAP-1 into pre-warmed PBS (37° C.) in a 1-cm×1-cm quartz cuvette. The analyte of interest was added to the cuvette to bring the concentration of analyte to 100 μM (unless otherwise specified) and the concentration of FAP-1 to 10 μM, followed by mixing by vigorous pipetting for 5 seconds, and a t=0 spectrum was acquired. The cuvette was placed in a 37° C. water bath. Emission spectra were recorded by quickly removing the cuvette from the water bath, obtaining the spectrum, and returning the cuvette to the bath. Spectra were taken at t=0, 20, 45, 60, 90, and 120 min (see FIG. 24B).
1 μL of 100 mM stock solution of methylglyoxal in Milli-Q water (freshly prepared by diluting 7.7 μL of neat methylglyoxal to 500 μL with Milli-Q water) was added to 999 μL of a 10.01 μM solution of FAP-1 in PBS.

[7] = test system: HEK293T cells; conditions: 10 μM FAP-1 30 min, FA 200 μM to 1 mM
Experimental: Statistical analyses for multiple comparisons were performed using one-way ANOVA with the Bonferroni correction in the statistical analysis software, R.

[8] = remark: listed apart in the source
Experimental: 999 μL of a 10.01 μM solution of FAP-1 in 20 mM PBS (pH 7.4) was prepared by diluting a 10 mM dimethylsulfoxide (DMSO) stock solution of FAP-1 into pre-warmed PBS (37° C.) in a 1-cm×1-cm quartz cuvette. 1 μL of 100 mM stock solution of FA (freshly prepared by diluting commercial 37 wt. % in H2O FA solution) was added (for a final concentration of 100 μM), and the mixture was mixed by vigorous pipetting for 5 s, followed by acquisition of the t=0 spectrum. Emission spectra (λex=645 nm, λem=655-750 nm) were collected at 0, 20, 45, 60, 90, and 120 min (see FIG. 24A). Temperature was maintained at 37° C. throughout the experiment by immersing the cuvette in a heated water bath between measurements.
999 μL of a 10.01 μM solution of FAP-1 in 20 mM PBS (pH 7.4) was prepared by diluting a 10 mM DMSO stock solution of FAP-1 into pre-warmed PBS (37° C.) in a 1-cm×1-cm quartz cuvette. 1 μL of a FA stock solution (either 5 mM or 1 mM, freshly prepared by diluting commercial 37 wt. % FA solution with Milli-Q water) or 1 μL of PBS was added (for a final concentration of 5 μM, 1 μM, or 0 μM FA), and the mixture was mixed by vigorous pipetting for 5 s and placed in a 37° C. water bath. Emission spectra were obtained after 120 min. Statistical analyses for multiple comparisons were performed using one-way ANOVA with the Bonferroni correction in the statistical analysis software, R.

[9] = remark: listed apart in the source
Experimental: as §1

[10] = test system: HEK293TN cells; conditions: 3 hrs
Experimental: Prior to imaging, cells were allowed to recover in FA-free buffer for 30 min. […] Because FA is a powerful fixative, cell viability assays were performed to determine the cytotoxicity of FA under experimental conditions. A dye exclusion protocol was employed, utilizing trypan blue to selectively stain and distinguish dead cells from those that were viable. […] To further verify that the cell populations under investigation were indeed alive, DAPI, a cell permeable nuclear and chromosome counterstain, was employed to identify intact nuclei (FIG. 16).

[11] = test system: NS1 cells
[12] = test system: HEK293T cells; conditions: FA in BSS, 37° C., 30 min
[13] = pH-Fluorescence profile of compound 4; assay type: physicochemical; conditions: pH 2.0 to 10.4, 25° C.
Experimental: FIG. 7 depicts the pH-Fluorescence profile of compound 4 (as denoted in FIG. 3). Fluorescence intensity was measured at 25° C. for the following pH values and indicated buffers: 50 mM Glycine (2.0, 2.4, 2.7, 3.1, 3.5), 50 mM sodium acetate (4.0, 4.4, 4.8, 5.2, 5.6), 50 mM MES (5.6, 6.0, 6.4, 6.8), 50 mM HEPES (6.8, 7.2, 7.4, 7.8, 8.2), 50 mM Tris (8.2, 8.6, 9.0, 9.5) and 50 mM glycine (9.5, 9.9, 10.4).

[14] = test system: MCF7 cells; assay: Confocal microscopy of FAP-1 in LSD1 inhibitor-treated MCF7 cells (endogenous FA); assay type: cell-based, human; conditions: 10 μM FAP-1 60 min
Text: Scale bar represents 50 μm in all images. […] Scale bar represents 50 μm in all images. […] Error bars denote SEM, n=6. *P<0.005

[Zn+2].c1ccc2c(c1)-c1nc-2nc2[n-]c(nc3nc([n-]c4nc(n1)-c1ccccc1-4)-c1ccccc1-3)c1ccccc21 [ZnPc, zinc phthalocyanine]
ϕstandard (quantum yield) [1]: 0.34

Cc1cc2c(ccn2C)cc1C1=C2C=CC(=O)C=C2[Si](C)(C)c2c1cc1c3c2CCCN3CCC1 [Compound 3, 9-(1,6-dimethyl-1H-indol-5-yl)-14,14-dimethyl-2,3,5,6,7,14-hexahydro-1H,12H-benzo[5,6]silino[2,3-f]pyrido[3,2,1-ij]quinolin-12-one]
ε [2]: 86000 M⁻¹ cm⁻¹ | λabs [2]: 633 nm | λem [2]: 649 nm | fluorescence (in words) ([2]; without the carboxaldehyde): non-fluorescent

C=CCC(N)c1cn(C)c2cc(C)c(C3=C4C=CC(=O)C=C4[Si](C)(C)c4c3cc3c5c4CCCN5CCC3)cc12 (stereo not drawn) [Compound 5, 9-(3-(1-aminobut-3-en-1-yl)-1,6-dimethyl-1H-indol-5-yl)-14,14-dimethyl-2,3,5,6,7,14-hexahydro-1H,12H-benzo[5,6]silino[2,3-f]pyrido[3,2,1-ij]quinolin-12-one]
Φ (quantum efficiency, ΦF) [2]: 0.02 | ε [2]: 100000 M⁻¹ cm⁻¹ | λabs [2]: 633 nm | λem [2]: 649 nm

C=CCC1NC2(c3ccc(C(=O)O)cc31)c1ccc(N(C)C)cc1[Si](C)(C)c1cc(N(C)C)ccc12 (stereo not drawn) [FAP-1]
log Doct/wat ([3]; 1-octanol / PBS, mean±standard deviation, triplicate): 0.53±0.01 | solubility in aqueous solution ([3]; aqueous solution buffered to pH 7.4): good solubility | photostability ([4]; 50% laser power): slight photobleaching | photostability ([4]; 100 scans with 6% laser power): consistent fluorescence intensity | ε650 ([5]; 20 mM PBS, pH 7.4): 190 M^1 cm^−1 | φfl (quantum yield) ([5]; 20 mM PBS, pH 7.4, ZnPc as standard): 0.36 | λem ([5]; turn-on response to FA): 662 nm | λmax ([5]; turn-on response to FA): 645 nm | fluorescence response ([6]; 10 μM methylglyoxal): not responsive | fluorescence response ([6]; 100 μM methylglyoxal (super-physiological)): small response | fluorescence turn-on in FA-treated cells over control cells [7]: significant and dose-dependent fluorescence turn-on | turn-on response at saturation ([8]; 10 μM FAP-1, 100 μM FA, extended incubation times): ca. 45 fold | fold fluorescence turn-on response ([8]; 10 μM FAP-1, 100 μM FA, pH 7.4, 37° C., within 1 h): ca. 8 fold | in vitro detection limit for FA ([8]; 10 μM FAP-1, 2-hour cutoff): 5 µM | selectivity for FA over competing RCS and carbonyl-containing molecules ([9]; 10 μM FAP-1, 100 μM analyte (glucose 1 mM), 37° C.): good selectivity | change in fluorescence ([9]; 100 μM H2O2): no change in fluorescence | change in fluorescence ([9]; 5 mM glutathione): no change in fluorescence

C=O [FA, Formaldehyde]
dead cells (trypan blue) ([10]; 1 mM FA): 5% | cells no longer viable (trypan blue) ([10]; 5 mM FA): ~35% | loss in viability (trypan blue) ([11]; NS1, 2.5 mM FA, 3 hrs): ca. 12% | cell death (trypan blue) ([11]; NS1, 5 mM FA): considerable cell death | cell viability (propidium iodide assay) [12]: no difference between FA-treated and untreated cells

Cc1cc2c(cc1C1=C3C=CC(=O)C=C3[Si](C)(C)c3c1cc1c4c3CCCN4CCC1)c(C=O)cn2C [Compound 4, 5-(14,14-dimethyl-12-oxo-2,3,6,7,12,14-hexahydro-1H,5H-benzo [5,6]silino [2,3-f]pyrido[3,2,1-ij]quinolin-9-yl)-1,6-dimethyl-1H-indole-3-carbaldehyde]
pH-fluorescence profile [13]: high fluorescence intensity was maintained under physiological conditions | Φ (quantum efficiency, ΦF) [2]: 0.13 | ε [2]: 106000 M⁻¹ cm⁻¹ | λabs [2]: 633 nm | λem [2]: 649 nm | Φ (quantum efficiency, ΦF) ([2]; listed as indole-3-carboxaldehyde product): 0.11

c1ccc([C@@H]2C[C@H]2NC2CCNCC2)cc1 [GSK-LSD1]
effect on FAP-1 fluorescence ([14]; MCF7, 1 μM inhibitor for 20 h): attenuated FAP-1 fluorescence

N[C@@H]1C[C@H]1c1ccccc1 (racemic) [TCP, tranylcypromine]
decrease in FAP-1 fluorescence signal compared to control cells ([14]; MCF7, 20 μM inhibitor for 20 h): ca. 20%
